By inhibition is commonly meant the change of the read-out against control, counted positive when it falls.

The text below walks through data of US8252768B2, “Designer therapy of pancreatic tumors” (University of Miami, priority 2006, dated 2012).

Molecules are shown by their SMILES.

One data set concerns the target T1, cytidine deaminase (CD) (Homo sapiens, UniProt P32320).
T1 construct: Crude extracts of PC-3 cells in culture were prepared as described above; endogenous in cells; host or cells: PC-3 cells (crude extract supernatant)
Description: Competition assay for substrates of cytidine deaminase, crude extracts of PC-3 cells. It is filed as biochemical. Conditions: competition studies, human tumor cell extracts. The procedure:
(§1) The crude enzyme extract (the supernatant of a 10 minute 14,000×g centrifugation) was then added. When cytidine was used as substrate, assays were conducted with benzacyclouridine to inhibit uridine phosphorylases. […] After 0, 15, and 30 minutes, the reaction was stopped and denatured protein removed as above for dC Kinase. […] Aliquots were then spotted on PE cellulose TLC sheets and the reactants separated with a solvent system composed of isopropanol:HCl:H2O (170:41:39). […] The nucleosides were visualized under U.V. light and the spots cut out and counted. […] Enzyme activity was expressed as nmole formed in 30 min/mg/protein.
Competition assays to determine Substrate Specificity: Crude extracts of PC-3 cells in culture were prepared as described above. Two concentrations of crude extract were utilized for the studies as determined from the analysis of protein.
The assays were run for 0, 15, and 30 minutes.

For data set [1], the system named is PC-3 cells. As to the kind of experiment: Cytotoxicity (clonogenic) assay, 72 h drug exposure. In kind it is cell-based, human. The procedure:
(§2) Toxicity and Radiation Studies: The methods using clonogenic assays described by Perez and Greer (Int. J. Rad. Oncology: Biology, Physics 12, 1523-1527, 1986—incorporated herein by reference in its entirety) were followed.
Cytotoxicity Assays: 5×10^5 cells were plated in 60 mm tissue culture dishes in 5 mls of the optimal growth media for the particular cell line in an humidified 95% air-5% CO2 atmosphere. The plates were incubated for 18-20 hours to allow for attachment and log-phase growth to begin. At the end of this period the growth medium was aspirated and replaced with […]. Four times (4×) concentrated solutions were prepared and then 1 ml was added to the plates; and growth media were then added to a total volume of […]. The plates were then incubated for 72 hours and the cells harvested by trypsinization. The cells were then serially diluted in growth medium replated into 60 mm dishes and incubated for 6 to 9 days depending on the cell line. After this incubation period, the media was aspirated and the colonies were washed twice with a PBS solution. The colonies were then stained with a 0.2% crystal violet-20% ethanol solution for 5 min. the stain was removed, the colonies were washed and air dried. A viable colony was one consisting of 25 or more normal appearing cells and was considered to have arisen from a single cell. The colonies were counted under a dissecting microscope. Two to three dilutions for every condition were plated. Dishes containing 30-300 colonies were used in the calculation and all conditions were done in duplicate.

Another data set relates to Lewis lung carcinoma. As to the kind of experiment: Mean day of death (T/C), Lewis lung carcinoma in mice. In kind it is in vivo, BD2F1 mice. How it is done: ; The efficacy of the drug, F3methyldC followed the pattern of Selectivity. The mean day of death (Tumor/Control) was 1.3, 1.6, 1.8 and 1.4 for 10, 25, 50 and 75 mg/kg H4U, respectively. […].
For data set [2], the system named is PC-3 cells. Description: Radiosensitization of cells in culture (Cobalt 60, clonogenic survival). In kind it is cell-based, human. The following applies: PC-3 cells. The procedure: as §2
Irradiation of Cells in Culture: 2×10^5 cells were plated in 25 cm^2 flasks and grown for 18 hr at 37° C. in a humidified 5% CO2 atmosphere. The medium was then removed and replaced with medium containing the appropriate drug concentrations and incubated for 72 hrs then removed and the cell monolayers were rinsed twice with PBS. The flasks were then filled with 50 ml of radiation medium (3 parts RPMI 1640 and 7 parts PBS plus antibiotics and glutamine). The cells were then irradiated using a Cobalt 60 irradiator. The cell monolayers were placed 35 cm away from the source and irradiated for appropriate times according to the dose rate. The dose rate was calculated, at this distance, using ionization chambers. Attenuation factors due to the polystyrene flask (0.9923) and the medium (H2O=0.8715) were considered in calculating the exposure period.
After irradiation the cell monolayers were washed again, replenished with growth media, and incubated for 1½ hours. The cell monolayers were then trypsinized and the cells serially diluted, appropriate dilutions were then plated in 60 mm dishes and incubated for 7-9 days at 37° C. and CO2. At the end of this period the cells were stained with crystal violet and the colony forming ability determined by considering 25 or more normal cells as a viable colony. The viabilities were determined and the appropriate survival curves derived. All conditions were done in duplicate using two flasks treated under identical conditions.

The test system of another data set is mouse tumor. The following applies: in vivo; cited from earlier work.
Data set [3] deals with deoxycytidine kinase (dCK) (Homo sapiens, UniProt P27707). Description: Competition assay for substrates of deoxycytidine kinase, crude extracts of PC-3 cells.
For a further data set, the target named is T2, dCMP deaminase (Mus musculus, UniProt Q8K2D6).
T2 construct: deaminase activity of tumor, serum and other tissues assayed 30 min after H4U; from tissue; host or cells: tumor (Lewis lung carcinoma), serum and other tissues of BD2F1 mice
T2 sequence (Q8K2D6 1-178): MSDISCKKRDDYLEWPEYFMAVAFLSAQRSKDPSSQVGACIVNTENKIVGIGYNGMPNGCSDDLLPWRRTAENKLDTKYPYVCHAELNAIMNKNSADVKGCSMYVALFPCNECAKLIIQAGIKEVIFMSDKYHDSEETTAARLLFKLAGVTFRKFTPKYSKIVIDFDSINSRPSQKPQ
Description: Inhibition of dCMP deaminase after H4U in mice bearing Lewis lung carcinoma. In kind it is in vivo, BD2F1 mice. The following applies: mouse, in vivo. The procedure:
dCMP Deaminase Activity: The crude enzyme extract was prepared as described in A. The reaction was carried out in 60 mM Tris HCl, pH 8.0, and 50 μm dCTP, 2.5 mM MgCl2, 30 mM NaF, and 80% H2O to which dCMP (^3H labeled) was added to a final concentration of 2 mM; 20 μl of enzyme extract was added to initiate the reaction giving a total volume of […]. […] A control lacking enzyme was included with each determination. The reaction was terminated as described above in at 0, 30 and 45 minutes and denatured protein was removed by centrifugation as described above. To 10 μl of the supernatant, 6 μl of a 0.03M solution of the carrier nucleotides, dCMP and dUMP were added so that the reactants can be visualized under a UV lamp. Chromatographic isolation of the products was carried out in 2 different solvent systems: A) Baker DEAE Cellulose TLC sheets in 0.01N HCl for 35 min. […] Each appropriate area of the thin layer sheets (where dCMP and dUMP were separated), were cut into small pieces and placed in separate vials and extracted with 1N HCl (1 ml) for 30 minutes. Scintillation cocktail was added (5 ml) to the vials which were vortexed prior to counting. The specific activity was expressed as nmoles/min/mg protein.

Another data set deals with T3, cytidine deaminase (Mus musculus, UniProt P56389).
T3 construct: from tissue; host or cells: Lewis lung carcinoma, liver, spleen, intestine, bone marrow, kidney, skeletal muscle and serum of BD2F1 mice
Description: Inhibition of tissue cytidine deaminase in mice bearing mammary adenocarcinoma-755 (FIG. 6). It is filed as in vivo, BD2F1 mice. Conditions: H4U 25 mg/kg or deoxytetrahydrouridine 100 mg/kg i.p.; 60 min. How it is done:
as §1

Sequence of deoxycytidine kinase (dCK) (P27707 whole entry): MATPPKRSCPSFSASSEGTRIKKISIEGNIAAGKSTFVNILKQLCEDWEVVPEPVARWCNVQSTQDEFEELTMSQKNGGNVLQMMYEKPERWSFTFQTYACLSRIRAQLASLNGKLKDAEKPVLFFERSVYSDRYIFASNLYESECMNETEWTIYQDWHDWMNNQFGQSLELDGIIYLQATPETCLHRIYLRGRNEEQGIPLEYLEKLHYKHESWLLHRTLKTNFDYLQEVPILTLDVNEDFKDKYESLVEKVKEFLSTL
T1 sequence (P32320 whole entry): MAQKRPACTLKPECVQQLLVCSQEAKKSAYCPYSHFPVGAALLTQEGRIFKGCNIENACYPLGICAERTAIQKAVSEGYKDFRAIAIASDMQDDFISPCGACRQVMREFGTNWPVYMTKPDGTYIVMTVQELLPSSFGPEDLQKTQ
T3 sequence (P56389 whole entry): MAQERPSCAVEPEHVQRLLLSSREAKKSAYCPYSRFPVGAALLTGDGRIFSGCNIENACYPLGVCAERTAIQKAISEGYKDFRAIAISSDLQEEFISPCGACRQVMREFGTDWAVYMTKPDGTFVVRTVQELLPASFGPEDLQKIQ

For the molecule `Nc1nc(=O)n([C@H]2C[C@H](O)[C@@H](CO)O2)cc1C(F)(F)F` [5-TrifluoromethyldC, 5-Trifluoromethyl-2′-deoxycytidine], the “substrate for cytidine deaminase (in words)” value on cytidine deaminase (CD) is “reasonably good substrate”. Besides, the “effect of thymidine on cytotoxicity (in words)” value in the data set on PC-3 cells [1] is on record as “antagonized by thymidine”. For the same molecule, the “effect of tetrahydrouridine (H4U) on cytotoxicity / viability (in words)” value in the data set on PC-3 cells [1] (human, 72 h) is “can be antagonized by H4U”. The “% S” value amounted to 67% in the data set with PC-3 cells [1] (nucleoside 1 μM, H4U 5 μM); 100% in the data set with PC-3 cells [1] (nucleoside 1 μM, H4U 100 μM); 100% in the data set with PC-3 cells [1] (nucleoside 1 μM, H4U 1500 μM); 0.1% with PC-3 cells [1] (nucleoside 10 μM, H4U 5 μM); 2% with PC-3 cells [1] (nucleoside 10 μM, H4U 100 μM); 3.3% in the data set on PC-3 cells [1] (nucleoside 10 μM, H4U 1500 μM). Also, the “MDD T/C (mean day of death)” value with Lewis lung carcinoma (H4U 10 mg/kg with F3methyldC) turned out to be 1.3; in the data set with Lewis lung carcinoma (H4U 25 mg/kg with F3methyldC, mean ± SE) it was 1.6; with Lewis lung carcinoma (H4U 50 mg/kg with F3methyldC, mean ± SE), 1.8; in the data set on Lewis lung carcinoma (H4U 75 mg/kg with F3methyldC) it was 1.4. Further, the “radiosensitization of PC-3 cells (in words)” value with PC-3 cells [2] is given as “not a radiosensitizer”. For the same molecule, the “efficacy vs a mouse tumor compared with other fluorinated pyrimidines (in words)” value with mouse tumor is “superior to 5-FUra, 5-FdU and 5-F3dT”. The “substrate for deoxycytidine kinase (in words)” value in data set [3] (competition studies, human tumor cell extracts) is “poor substrate”. Moreover, the inhibition at 250 µM in data set [3] (read-out: % Inhibition (dCK)) worked out at 0%.
As to `O=C1NC(O)CCN1[C@H]1C[C@H](O)[C@@H](CO)O1` (stereo partly shown) [Deoxytetrahydrouridine], on dCMP deaminase, the “selective inhibition of dCMP deaminase of normal tissue (in words)” value is listed as “not selectively inhibited”. Besides, on cytidine deaminase, the “selectivity of inhibition: tumor CD vs CD of normal tissues (in words)” value is listed as “did not display a selective inhibition”.
